# Measured values from US10434174B2, “Combination therapies using platinum agents and agents that target tumor-associated stroma or tumor cells” (BIOMED VALLEY DISCOVERIES, INC., priority 2014, dated 2019).
# Square brackets hold non-standard residues; d marks the D form. Peptide text beside a SMILES is read from it. * marks the point of attachment. Dolaproine = CO[C@@H]([C@@H]1CCCN1)[C@@H](C)C(=O)O; Dil = CC[C@H](C)[C@H](NC)[C@@H](CC(=O)O)OC; X1 = C[C@@H](N*)[C@@H](O)c1ccccc1; NMeV = CN[C@H](C(=O)O)C(C)C
# Test system: OVCAR3 ovarian cancer model
# Experiment: M825 and M825-MMAE in OVCAR3 ovarian cancer model
# Format: in vivo, mouse
# Conditions: 0.2 mg/kg, equivalent to maximum MMAE in the 10 mg/kg ADC group
# Description: Treatment initiated when tumor volume reached approximately 120 mm^3. M825 was given i.v. at 10 mg/kg and M825-MMAE was given i.v. at 1, 3, or 10 mg/kg, 2 times per week for 3.5 weeks. […] The 10 mg/kg ADC group was redosed on Day 56, 2 times per week.
smiles,measurement,value
CC[C@H](C)[C@@H]([C@@H](CC(=O)N1CCC[C@H]1[C@H](OC)[C@@H](C)C(=O)N[C@H](C)[C@@H](O)c1ccccc1)OC)N(C)C(=O)[C@@H](NC(=O)[C@@H](NC)C(C)C)C(C)C [MMAE] (H-[NMeV]V[Dil][Dolaproine]-X1),tumor growth,No effect
